In patent US20100304971A1, “HERBICIDAL COMBINATION” (Bayer CropScience AG, priority 2008, published 2010):

Assays:
Polygonum convolvulus = assay: Post-emergence action against weeds, greenhouse, visual scoring; type: in vivo; conditions: 11 days after application
Description: (§1) Seeds or rhizome pieces of monocotyledonous and dicotyledonous weeds were placed in sandy loam soil in plastic pots, covered with soil and cultivated in a greenhouse under good growth conditions. Three weeks after sowing, the test plants were treated at the 2- to 4-leaf stage. The compounds according to the invention, formulated as wettable powders or as emulsion concentrates, were sprayed onto the green parts of the plants in various dosages at a water application rate of 100 to 800 I/ha (converted). After the test plants had been left to stand in the greenhouse for 10 to 28 days under optimum growth conditions, the effect of the preparations was scored visually in comparison to untreated controls.
(§2) 0%=no control 100%=complete control

Veronica persica = assay: as above; type: in vivo; conditions: 11 days after application
Description: as §1, §2

## CCSC(C)CC1CC(=O)C(/C(CC)=N/OC/C=C/Cl)=C(O)C1 (stereo not drawn) [Compound B2-3, clethodim]
Polygonum convolvulus; Table 4, 50 g of active ingredient/ha
  Polygonum convolvulus Control in %: 20%

## CCO/N=C(\CC)C1=C(O)CC(c2c(C)cc(C)cc2C)CC1=O (stereo not drawn) [Compound B2-8, tralkoxydim]
Polygonum convolvulus; Table 5, 150 g of ai/ha
  Polygonum convolvulus Control in %: 20%

## CS(=O)(=O)c1ccc(C(=O)C2C(=O)CCCC2=O)c(Cl)c1COCC1CCCO1 (stereo not drawn) [Compound B3-3, tefuryltrione]
Polygonum convolvulus; Table 3, 100 g of active ingredient/ha
  Polygonum convolvulus Control in %: 15%

## CS(=O)(=O)c1ccc(C(=O)C2C(=O)CCCC2=O)c(Cl)c1COCC(F)(F)F [Compound B3-4, tembotrione]
Polygonum convolvulus; Table 1, 50 g of ai/ha
  Polygonum convolvulus Control in %: 45%

## COCCOCc1nc(C(F)(F)F)ccc1C(=O)C1C(=O)C2CCC(C2)C1=O (stereo not drawn) [Compound B3-5, 3-[[2-[(2-methoxyethoxy)methyl]-6-(trifluoromethyl)pyridin-3-yl]carbonyl]bicyclo[3.2.1]octane-2,4-dione]
Veronica persica; Table 2, 25 g of ai/ha
  Veronica persica Control in %: 20%

## CCOc1cc(Cl)cc(CC)c1C1=C(O)C2(CCC(OC)CC2)NC1=O (stereo not drawn) [Compound B4-1, cis-3-(4-chloro-2-ethoxy-6-ethylphenyl)-4-hydroxy-8-methoxy-1-azaspiro[4.5]dec-3-en-2-one]
Polygonum convolvulus; Table 6, 7.5 g of ai/ha
  Polygonum convolvulus Control in %: 20%

## sodium salt of 2-iodo-N-[(4-methoxy-6-methyl-1,3,5-triazin-2-yl)carbamoyl]benzenesulfonamide [Compound A-2]
Polygonum convolvulus; Table 1, 2.5 g of ai/ha, 0%=no control, 100%=complete control
  Polygonum convolvulus Control in %: 10%
Polygonum convolvulus; Table 3, 2.5 g of active ingredient/ha
  Polygonum convolvulus Control in %: 20%
Polygonum convolvulus; Table 4, 2.5 g of active ingredient/ha
  Polygonum convolvulus Control in %: 0%
Polygonum convolvulus; Table 5, 2.5 g of ai/ha
  Polygonum convolvulus Control in %: 0%
Polygonum convolvulus; Table 6, 2.5 g of ai/ha
  Polygonum convolvulus Control in %: 0%
Veronica persica; Table 2, 2.5 g of ai/ha, 0%=no control, 100%=complete control
  Veronica persica Control in %: 5%
